According to patent US6083929A, “Extended type 1 chain glycosphingolipids as tumor-associated antigens” (The Biomembrane Institute, priority 1992, dated 2000):
“Also recorded” adds a separate entry of the source. Where two headings read alike, the source gives them in different places.

Key:
MAb 1B2 = assay: TLC immunostaining with MAb 1B2; assay type: binding; details: TLC immunostaining after enzymatic degradation of dimeric Le^a
Description: (§1) MAb ST-421 was established as previously described (Watanabe et al., Jpn. J. Cancer Res. (Gann) 76:43-52, 1985). MAb MNH-1, which defines type 1 chain N-acetyllactosamine (Galβ1→3GlcNAcβ1→R), was prepared in laboratory of the inventors; MAb 1B2, which defines type 2 chain N-acetyllactosamine (Galβ1→4GlcNAcβ1→R), was established as previously described (Young et al., J. Biol. Chem. 256:10967-10972, 1981). Anti-Le^a MAb was obtained from Chembiomed Ltd. (Edmonton, Alberta, Canada). […] HPTLC immunostaining was performed using Whatman HPTLC plates (HP-KF) by a modified version (Kannagi et al., J. Biol. Chem. 257:4438-4442, 1982; Kannagi et al., J. Biol. Chem. 257:14865-14874, 1982) of the method originally described by Magnani et al. (Magnani et al., Anal. Biochem. 109:399-402, 1980).
(§2) Enzymatic degradation of 1 mg dimeric Le^a was performed by sequential hydrolysis with 0.5 units of α-fucosidase (bovine kidney), 0.5 units of β-galactosidase (Cackbean), and 0.5 units of β-N-acetylglucosaminidase (bovine epididymis) (Sigma Chemical Co., St. Louis, Mo.). All reactions were carried out in 0.2 M sodium citrate (pH 4.5) for 4 hr at 37° C. in a water bath with shaking. Purification of each degradative product was performed by preparative HPTLC.
(§3) TLC immunostaining of the purified antigen component with various MAbs was performed before and after successive enzymatic degradation. […] Bands a and b are therefore assumed to be Lc6 (Table III, structure 6) and III^4 FucLc6 (structure 13), respectively, based on their reactivity with MAbs and on further enzymatic degradation patterns.

MAb MNH-1 = assay: TLC immunostaining with MAb MNH-1; assay type: binding; details: TLC immunostaining after enzymatic degradation of dimeric Le^a
Description: as §1, §2, §3

MAb IMH2 = assay: TLC immunostaining / solid-phase ELISA reactivity of MAb IMH2 with GSL antigens; set-up: species or system mouse; details: TLC immunostaining / antibody binding on solid-phase antigen, IMH2 5 μg/ml
Description: FIG. 8 graphically illustrates the reactivity of MAb IMH2 with various glycosphingolipids (GSLs). Serial double dilutions of various GSL antigens were added to 96-well flat-bottom assay plates (Probind plate, Falcon) in ethanol and dried. Initial concentration of GSL added to the first well was 100 ng/well. MAb binding assay was performed by ELISA as described below. Abscissa, reciprocal of antigen dilution. Ordinate, optical density reading at 490 nm. Paragloboside is abbreviated as "PG". Panel A: reactivity of type 1 chain GSLS. .circle-solid., Le^b /Le^a. .smallcircle., Le^b hexasaccharide (IV^2 FucIII^4 FucLc4). Δ, Le^a /Le^a. .quadrature. […] Panel B: reactivity of type 2 chain GSLs. .circle-solid., Le^y /Le^x (VI^2 FucV^3 FucIII^3 FucnLc6). .smallcircle., Le^y hexasaccharide ceramide (IV^2 FucIII^3 FucnLc4). Δ, Le^x /Le^x (V^3 FucIII^3 FucnLc6). .quadrature. (all of the following had similar reactivity), H1 type 2 chain (IV^2 nLc4); H2 type 2 chain (IV^2 FucnLc6); PG (nLc4); Le^x (III^3 FucnLc4). When GSL antigens were mixed with cholesterol and phosphatidylcholine in a molar ratio of 1:5:3 in ethanol and analyzed as above, the relative degrees of reactivity were essentially the same as shown in the figure.
The binding specificity of MAb IMH2 was tested by thin-layer chromatography immunostaining of various GSL antigens by the method previously described by Magnani et al. (Anal. Biochem. 109:399-402, 1980), and modified by Kannagi et al. (Cancer Res. 43:4997-5005, 1983). IMH2 reactivity was also determined by antibody binding on solid-phase antigen as follows. Each GSL antigen, dissolved in ethanol (100 ng/50 μl), was placed in a well, serially diluted with ethanol to 0.1 ng/50 μl per well in a flat-bottom 48-well plate (Falcon, Becton-Dickinson, Lincoln Park, N.J.), and dried. The dried antigen in each well was then incubated with 1% bovine serum albumin in PBS for 1 hr at room temperature, followed by reaction with IMH2 (5 μg/ml) for 18 hr at 4° C. Each well was washed with PBS, followed by incubation with biotinylated second antibody and avidin-peroxidase conjugate as prepared in the ELISA assay kit. The orange color developed in each well was read by automated "ELISA reader" (EL312 Biokinetics Reader, Biotek Instruments, Winooski, Vt.), and optical density at […] for each well was recorded.

anti-Le^y MAb AH6 = assay: Reactivity of GSL with anti-Le^y MAb AH6; assay type: binding
Description: as §1

anti-Le^b MAbs = assay: Reactivity of GSL with anti-Le^b MAbs; assay type: binding
Description: as §1

MAb ST-421 [1] = assay: TLC immunostaining of GSL with MAb ST-421; assay type: binding
Description: as §1
Extended sialyl-Le^a on the SLe^a -Le^a structure was verified by enzymatic degradation with sialidase to yield the same compournd as Le^a -Le^a as verified by thin layer chromatography as well as immunostaining with monoclonal antibody ST-421.

MAb ST-421 [2] = assay: Solid-phase radioimmunoassay of glycolipids with MAb NCC-ST-421; assay type: binding; details: ST421 10 μg/ml, initial glycolipid 100 ng
Description: FIG. 7 graphically illustrates the reactivity of dimeric Le^a, Le^a -Le^x and related glycolipids with MAb NCC-ST-421. Solid-phase radioimmunoassay with MAb ST-421 using serially-diluted dimeric Le^a, Le^a /Le^x, and various structurally-related glycoilpid antigens. Initial concentration of glycolipids was 100 ng. ST421 was used at a concentration of 10 μg/ml. A, IV^3 Galβ1→3[Fuc1→4]GlcNAcIII^3 FucnLc4 (Le^a /Le^x; structure 10 in Table III); B, V^4 III^4 Fuc2 Lc6 (dimeric Le^a; structure 11); C, IV^3 Galβ1→3[Fucα1→4]GlcNAcnLc4 (structure 8); D, III^4 FucLc4 (structure 1); E, IV^3 (Galβ1→3GlcNAcIII^3 FucnLc4 (structure 9); F, V^3 III^3 Fuc2 nLc6 (structure 7); G, IV^2 FucLc4 (structure 2); H, IV^3 Galβ1→3GlcNAcnLc4 (structure 4); I, IV^2 III^4 Fuc2 Lc4 (structure 3); J, nLc6 (structure 5); K, VI^2 FucnLc6 (type 2 H with nLc6 core; not shown in Table III); L, VI^2 V^3 Fuc2 nLc6 (Le^y with nLc6 core; not shown in Table III).
The solid-phase radioimmunoassay as described by Kannagi et al. (Cancer Res. 43:4997-5005, 1983) was used. […] Dimeric Le^x and various other structurally related GSLs were not reactive with ST421 (FIG. 7).

anti-Le^a MAb = assay: Reactivity of GSL with anti-Le^a MAb; assay type: binding
Description: as §1, §3

III^4 FucLc6
reactivity with MAb 1B2 (MAb 1B2): not with anti-Le^a or 1B2
reactivity with MAb MNH-1 (MAb MNH-1): reacted with MAb MNH-1

III^3 V^3 Fuc2 nLc6 [Dimeric Le^x]
reactivity of MAb IMH2 with GSL (in words) (MAb IMH2): reacted weakly

IV^2 FucnLc4 [H1]
reactivity of MAb IMH2 with GSL (in words) (MAb IMH2): did not react

Lc4
reactivity of MAb IMH2 with GSL (in words) (MAb IMH2): did not react
reactivity with MAb 1B2 (MAb 1B2): did not react
reactivity with MAb MNH-1 (MAb MNH-1): reacted strongly

VI^2 FucV^3 FucIII^3 FucnLc6 [Le^y /Le^x]
reactivity of MAb IMH2 with GSL (in words) (MAb IMH2): reacts strongly; also recorded: reacted equally well; also recorded: reacts
reactivity with anti-Le^y MAb AH6 (anti-Le^y MAb AH6): reacted with AH6
reactivity with anti-Le^b MAbs (anti-Le^b MAbs): not with anti-Le^b

III^4 V^4 Fuc2 Lc6 [dimeric Le^a]
reactivity with MAb ST-421 (MAb ST-421 [1]): stained strongly

nLc4
reactivity of MAb IMH2 with GSL (in words) (MAb IMH2): did not react

IV^2 FucLc4 [H type 1 chain]
reactivity of MAb IMH2 with GSL (in words) (MAb IMH2): did not react

VI^2 FucnLc6 [H2]
reactivity of MAb IMH2 with GSL (in words) (MAb IMH2): did not react

IV^3 Galβ1→3[Fuc1→4]GlcNAcIII^3 FucnLc4 [Le^a /Le^x]
reactivity with MAb ST-421 (MAb ST-421 [1]): reacted with anti-Le^a MAb as well as with MAb ST-421
reactivity with MAb ST-421 (MAb ST-421 [1]; listed as Le^a /Le^a): react strongly; also recorded: reacted with anti-Le^a MAb as well as with MAb ST-421
reactivity with ST-421 (MAb ST-421 [2]): strongest reactivity; also recorded: clear preference for them compared to extended Le^a or simple Le^a
reactivity of MAb IMH2 with GSL (in words) (MAb IMH2): did not react
reactivity of MAb IMH2 with GSL (in words) (MAb IMH2; listed as Le^a /Le^a): reacted weakly
reactivity with anti-Le^a MAb (anti-Le^a MAb): reacted with anti-Le^a MAb

Lc6
reactivity with MAb 1B2 (MAb 1B2): not with anti-Le^a or 1B2
reactivity with MAb MNH-1 (MAb MNH-1): reacted with MAb MNH-1
